{
  "source": "BigSolDB 2.1",
  "data": [
    {"smiles": "Nc1ccc(S(=O)(=O)Nc2ccc([N+](=O)[O-])cc2)cc1", "values": [
      {"measurement": "solubility (mole fraction)", "setting": "in n-octanol, 293.15 K", "result": 0.0026},
      {"measurement": "solubility (mole fraction)", "setting": "in n-octanol, 298.15 K", "result": 0.003},
      {"measurement": "solubility (mole fraction)", "setting": "in n-octanol, 303.15 K", "result": 0.00361},
      {"measurement": "solubility (mole fraction)", "setting": "in n-octanol, 310.15 K", "result": 0.00465},
      {"measurement": "solubility (mole fraction)", "setting": "in n-octanol, 315.15 K", "result": 0.00562},
      {"measurement": "solubility (mole fraction)", "setting": "in water, 293.15 K", "result": "2.72e-06"},
      {"measurement": "solubility (mole fraction)", "setting": "in water, 298.15 K", "result": "3.64e-06"},
      {"measurement": "solubility (mole fraction)", "setting": "in water, 303.15 K", "result": "4.88e-06"},
      {"measurement": "solubility (mole fraction)", "setting": "in water, 310.15 K", "result": "7.63e-06"},
      {"measurement": "solubility (mole fraction)", "setting": "in water, 315.15 K", "result": "8.29e-06"}
    ]},
    {"smiles": "O=[N+]([O-])c1ccc(NS(=O)(=O)c2ccccc2)cc1", "values": [
      {"measurement": "solubility (mole fraction)", "setting": "in n-octanol, 293.15 K", "result": 0.00958},
      {"measurement": "solubility (mole fraction)", "setting": "in n-octanol, 298.15 K", "result": 0.0116},
      {"measurement": "solubility (mole fraction)", "setting": "in n-octanol, 303.15 K", "result": 0.0139},
      {"measurement": "solubility (mole fraction)", "setting": "in n-octanol, 310.15 K", "result": 0.018},
      {"measurement": "solubility (mole fraction)", "setting": "in n-octanol, 315.15 K", "result": 0.0222},
      {"measurement": "solubility (mole fraction)", "setting": "in water, 293.15 K", "result": "1.45e-06"},
      {"measurement": "solubility (mole fraction)", "setting": "in water, 298.15 K", "result": "1.85e-06"},
      {"measurement": "solubility (mole fraction)", "setting": "in water, 303.15 K", "result": "2.32e-06"},
      {"measurement": "solubility (mole fraction)", "setting": "in water, 310.15 K", "result": "3.19e-06"},
      {"measurement": "solubility (mole fraction)", "setting": "in water, 315.15 K", "result": "3.71e-06"}
    ]},
    {"smiles": "N#Cc1ccc(NS(=O)(=O)c2ccc(N)cc2)cc1", "values": [
      {"measurement": "solubility (mole fraction)", "setting": "in n-octanol, 293.15 K", "result": 0.00112},
      {"measurement": "solubility (mole fraction)", "setting": "in n-octanol, 298.15 K", "result": 0.00129},
      {"measurement": "solubility (mole fraction)", "setting": "in n-octanol, 303.15 K", "result": 0.00158},
      {"measurement": "solubility (mole fraction)", "setting": "in n-octanol, 310.15 K", "result": 0.00197},
      {"measurement": "solubility (mole fraction)", "setting": "in n-octanol, 315.15 K", "result": 0.00234},
      {"measurement": "solubility (mole fraction)", "setting": "in water, 293.15 K", "result": "4.11e-06"},
      {"measurement": "solubility (mole fraction)", "setting": "in water, 298.15 K", "result": "5.47e-06"},
      {"measurement": "solubility (mole fraction)", "setting": "in water, 303.15 K", "result": "7.58e-06"},
      {"measurement": "solubility (mole fraction)", "setting": "in water, 310.15 K", "result": "1.16e-05"},
      {"measurement": "solubility (mole fraction)", "setting": "in water, 315.15 K", "result": "1.45e-05"}
    ]}
  ]
}
